Data: patent US9988268B2, “Preparation of 2,6- and 2,7-disubstituted anthraquinone derivatives” (BASF SE, priority 2014, dated 2018)
Values after ≈ are worked out from the molar mass of the structure shown. Read-outs that look alike come from different tables or passages of the source.

Assay: Determination of the solubility of anthraquinone derivatives in xylene/diisobutylcarbinol
Assay type: physicochemical
Conditions: for solubility: mixture of xylene (50 volume-%) and diisobutylcarbinol (50 volume-%), 22° C.; for Solubility (in words): xylene/diisobutylcarbinol solvent system, comparison of anthraquinone derivatives
Procedure: 0.06 ml of a mixture of xylene (50 volume-%) and diisobutylcarbinol (50 volume-%) were added to 1 g of the respective anthraquinone derivative at 22° C. every 60 seconds until the anthraquinone derivative was dissolved completely.

solubility (xylene/diisobutylcarbinol mixture (50:50 by volume), organic solvent or mixture, thermodynamic from solid, read-out: Solubility) [mM]	Solubility (in words)	solubility	SMILES
270 (≈ 63.8 mg/mL)	poorly soluble		CCc1ccc2c(c1)C(=O)c1ccccc1C2=O [2-ethylanthraquinone]
	insoluble	insoluble	Cc1cc2c(cc1C)C(=O)c1cc(C)c(C)cc1C2=O [Comparative Example 6, 2,3,6,7-tetramethylanthracene-9,10-dione]
